14 compounds from article PMC11284800 (Journal of Medicinal Chemistry, 2024) can be followed below.

Read-outs that look alike come from different tables or passages of the source.

Data set [1] addresses T1, hCB1R (Homo sapiens, UniProt P21554). Nature of the data set: HTRF cAMP assay, agonist / inverse agonist mode. It counts as cell-based. More on the design: expressed in transfected cells; host or cells: CHO. The following applies: for Functional activity at CB1R (in words): CB1R cAMP HTRF assay. In general terms: Time-resolved FRET reads energy transfer from a long-lived donor to a nearby acceptor.

For data set [2], the target named is T1, hCB1R. As to the kind of experiment: [3H]CP55,940 displacement assay on CHO membranes, CB1R. It counts as binding. Details: host or cells: CHO-K1 (CHOK1hCB1_bgal). The following applies: for Ki: [3H]CP55,940 displacement; for hCB1R % displacement at 10 µM: [3H]CP55,940 displacement at 10 µM compound, ± SEM.
For data set [3], the target named is T2, human CB2R (Homo sapiens, UniProt P34972).
T2 construct: host or cells: CHO-K1 (CHOK1hCB2_bgal)
Nature of the data set: [3H]CP55,940 displacement assay on CHO membranes, CB2R. It counts as binding. The following applies: for hCB2R % displacement at 10 µM: [3H]CP55,940 displacement at 10 µM compound, ± SEM; for Ki: [3H]CP55,940 displacement.

Data set [4] addresses T1, hCB1R. As to the kind of experiment: HTRF cAMP assay, antagonist mode (forskolin with CP55,940). The following applies: for Emax: read-out: Variation of Emax.
Procedure: The homogeneous time-resolved fluorescence (HTRF) cAMP assay was conducted following the manufacturer’s protocol for the cAMP-Gs Dynamic kit. […] After 15 min, reactions were stopped by the 1× cAMP-d2 conjugate in lysis buffer (5 μL/well), followed by 1× anti-cAMP cryptate conjugate in lysis buffer (5 μL/well). Following a 1 h incubation at room temperature, the plates were read in a Revvity Envision reader for time-resolved fluorescence resonance energy transfer detection at 620 and 665 nm. The HTRF ratio versus compound concentrations was plotted using Prism 8.1 (GraphPad). HTRF ratio = (signal 665 nm/signal 620 nm) × 10^4.
Data set [5] is described as follows: Photophysical characterization in PBS. It counts as physicochemical. The settings on record: PBS pH 7.4.
Setting [6] is: CHO membranes stably expressing human CB1R, means of three experiments, read-out: hCB1R Ki.
[7] abbreviates: CHO membranes stably expressing human CB2R, means of three experiments, read-out: hCB2R Ki.
The mark [8] stands for this setting: hCB2R Ki, CHO membranes stably expressing human CB2R, means of three experiments.
Setting [9] is: hCB1R Ki, CHO membranes stably expressing human CB1R, means of three experiments.

T2 sequence (P34972 whole entry): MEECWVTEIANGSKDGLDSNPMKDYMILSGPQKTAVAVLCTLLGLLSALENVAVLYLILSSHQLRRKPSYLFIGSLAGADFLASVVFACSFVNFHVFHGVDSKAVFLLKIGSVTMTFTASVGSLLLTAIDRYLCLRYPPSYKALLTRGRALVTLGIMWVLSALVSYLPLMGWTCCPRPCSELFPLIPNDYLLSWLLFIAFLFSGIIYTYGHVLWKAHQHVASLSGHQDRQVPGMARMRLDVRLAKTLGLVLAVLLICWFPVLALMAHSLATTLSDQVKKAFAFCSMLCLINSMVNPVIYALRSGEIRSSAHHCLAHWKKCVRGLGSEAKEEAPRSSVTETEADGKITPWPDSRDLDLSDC
T1 sequence (P21554 whole entry): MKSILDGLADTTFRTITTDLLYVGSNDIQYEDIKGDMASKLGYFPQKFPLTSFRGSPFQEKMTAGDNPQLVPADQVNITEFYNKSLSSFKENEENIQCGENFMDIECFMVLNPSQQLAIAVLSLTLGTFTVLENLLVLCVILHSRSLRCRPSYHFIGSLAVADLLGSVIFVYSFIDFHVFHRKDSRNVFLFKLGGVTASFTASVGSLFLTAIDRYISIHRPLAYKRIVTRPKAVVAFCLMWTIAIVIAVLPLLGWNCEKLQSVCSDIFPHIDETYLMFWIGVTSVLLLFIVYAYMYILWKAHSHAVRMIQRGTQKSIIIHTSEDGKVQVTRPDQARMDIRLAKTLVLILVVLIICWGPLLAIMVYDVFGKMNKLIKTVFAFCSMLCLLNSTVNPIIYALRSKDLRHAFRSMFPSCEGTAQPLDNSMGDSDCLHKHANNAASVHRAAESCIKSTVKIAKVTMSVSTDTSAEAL

With `CCC(CC)(NC(=O)c1cc(-c2cc(C(F)(F)F)ccc2C(F)(F)F)n(C[C@H]2CCCO2)c1C)C(=O)NCCOCCOCCNC(=O)OC(C)(C)C` [Compound 22b, tert-Butyl (R)-(1-(5-(2,5-Bis(trifluoromethyl)phenyl)-2-methyl-1-((tetrahydrofuran-2-yl)methyl)-1H-pyrrol-3-yl)-3,3-diethyl-1,4-dioxo-8,11-dioxa-2,5-diazatridecan-13-yl)carbamate], the results for the Emax in data set [1] and in data set [4] were -69% and -105%, respectively. The “Functional activity at CB1R (in words)” value in data set [1] is recorded as “inverse agonist”. The IC50 in data set [1] (read-out: Functional activity (cAMP assay) IC50) was 131 nM; in data set [4], 1000 nM. Moreover, the Ki in data set [2] (setting [6]) was 811 nM; in data set [3] (setting [7]), above 10000 nM. Also, in data set [3], the “hCB2R % displacement at 10 µM” value is 22 ± 9%.

In data set [1], `CCOC(=O)C(CC)(CC)NC(=O)c1nn(Cc2cccc(F)c2)c2ccccc12` [Compound 19, Ethyl 2-Ethyl-2-(1-(3-fluorobenzyl)-1H-indazole-3-carboxamido)butanoate] returned an EC50 of 3.24 nM. Besides, the Emax in data set [1] stood at 93%. Besides, the “Functional activity at CB1R (in words)” value in data set [1] is given as “agonist”. Moreover, the Ki in data set [2] (hCB1R pKi ± SEM, CHO membranes) was 19.1 nM; in data set [3] (setting [8]), 1 nM; in data set [3] (hCB2R pKi ± SEM, CHO membranes), 0.631 nM.

For the compound `CCC(CC)(NC(=O)c1nn(-c2ccc(Cl)cc2Cl)c(-c2ccc(Cl)cc2)c1C)C(=O)NCCOCCOCCNC(=O)OC(C)(C)C` [Compound 23b, tert-Butyl (1-(5-(4-Chlorophenyl)-1-(2,4-dichlorophenyl)-4-methyl-1H-pyrazol-3-yl)-3,3-diethyl-1,4-dioxo-8,11-dioxa-2,5-diazatridecan-13-yl)carbamate], in data set [1], the Emax was -44%, the IC50 is 64.6 nM and the “Functional activity at CB1R (in words)” value is given as “inverse agonist”. This compound showed a Ki in data set [2] (setting [9]) of 139 nM. Besides, the “hCB2R % displacement at 10 µM” value in data set [3] was 44 ± 5%. For the same compound, in data set [3] (setting [8]), the Ki is above 10000 nM. In addition, in data set [4], half-maximal inhibition (IC50) required 1580 nM and the Emax is -96%.

Turning to `CCOC(=O)C(CC)(CC)NC(=O)c1cnc(OCC2CC2)c(-c2ccc(F)cc2)c1` [Compound 17, Ethyl 2-(6-(Cyclopropylmethoxy)-5-(4-fluorophenyl)nicotinamido)-2-ethylbutanoate], the Emax in data set [1] was -48%; in data set [4] it was -116%. In addition, the values for the IC50 in data set [1] and in data set [4] were 43.6 nM and 3980 nM, respectively. Also, the “Functional activity at CB1R (in words)” value in data set [1] was “inverse agonists”. For the same compound, the Ki in data set [2] (setting [9]) was 308 nM; in data set [3] (setting [8]), 6 nM; in data set [3] (hCB2R pKi ± SEM, CHO membranes), 6.46 nM.

In the case of `CCOC(=O)C(CC)(CC)NC(=O)c1cc(-c2cc(C(F)(F)F)ccc2C(F)(F)F)n(C[C@H]2CCCO2)c1C` [Compound 14, Ethyl (R)-2-(5-(2,5-Bis(trifluoromethyl)phenyl)-2-methyl-1-((tetrahydrofuran-2-yl)methyl)-1H-pyrrole-3-carboxamido)-2-ethylbutanoate], in data set [1], the Emax is -46%, the IC50 worked out at 1.48 nM and the “Functional activity at CB1R (in words)” value is “inverse agonists”. The compound also had a Ki in data set [2] (hCB1R pKi ± SEM, CHO membranes) of 11 nM. Besides, in data set [2] (radioligand binding Ki ratio), the “Ki(CB2R)/Ki(CB1R) selectivity” value is listed as 28 fold. Further, the Ki in data set [3] (setting [7]) stood at 306 nM. In data set [4], the IC50 is 10 nM and the Emax is -107%.

`CCOC(=O)C(CC)(CC)NC(=O)c1nn(-c2ccc(Cl)cc2Cl)c2c1CCCc1cc(Cl)ccc1-2` [Compound 16, Ethyl 2-(8-Chloro-1-(2,4-dichlorophenyl)-1,4,5,6-tetrahydrobenzo[6,7]cyclohepta[1,2-c]pyrazole-3-carboxamido)-2-ethylbutanoate]: in data set [1], the “Functional activity at CB1R (in words)” value was “no activity”. The Ki in data set [2] (hCB1R pKi ± SEM, CHO membranes) is 17.8 nM; in data set [3] (hCB2R pKi ± SEM, CHO membranes), 3.98 nM.

Take `CCOC(=O)C(CC)(CC)NC(=O)c1nn(-c2ccc(Cl)cc2Cl)c(-c2ccc(Cl)cc2)c1C` [Compound 15, Ethyl 2-(5-(4-Chlorophenyl)-1-(2,4-dichlorophenyl)-4-methyl-1H-pyrazole-3-carboxamido)-2-ethylbutanoate]: the Emax in data set [1] was -42%. For the same compound, the IC50 in data set [1] is 13.2 nM. In data set [1], the “Functional activity at CB1R (in words)” value is on record as “inverse agonists”. Further, the Ki in data set [2] (hCB1R pKi ± SEM, CHO membranes) is 28.2 nM; in data set [3] (setting [8]), 9 nM; in data set [3] (hCB2R pKi ± SEM, CHO membranes), 8.51 nM.

For `CCOC(=O)C(CC)(CC)NC(=O)c1cnc(OCCOC)c(-c2ccc(Cl)cc2)n1` [Compound 18, Ethyl 2-(6-(4-Chlorophenyl)-5-(2-methoxyethoxy)pyrazine-2-carboxamido)-2-ethylbutanoate], in data set [1], the Emax was -41%, the half-maximal inhibitory concentration (IC50) was 191 nM and the “Functional activity at CB1R (in words)” value is on record as “inverse agonists”. The compound also yielded a Ki in data set [2] (setting [9]) of 817 nM. Besides, the Ki in data set [3] (hCB2R pKi ± SEM, CHO membranes) is 11.2 nM.

Consider `CCC(CC)(NC(=O)c1nn(-c2ccc(Cl)cc2Cl)c(-c2ccc(Cl)cc2)c1C)C(=O)NCCOCCOCCNC(=O)c1ccc2c(c1)C(=O)OC21c2ccc(N(C)C)cc2Oc2cc(N(C)C)ccc21` [Compound 31], for which, in data set [5], the “Abs (absorbance maximum)” value amounted to 520 nm, the “Em (emission maximum)” value is recorded as 585 nm and the “QY (quantum yield)” value was determined as 17.50%. Also, in data set [2], the “hCB1R % displacement at 10 µM” value stood at 37 ± 5%. Also, the Ki in data set [2] (read-out: hCB1R Ki, CHO membranes stably expressing human CB1R, means of three experiments) was above 10000 nM. Besides, the “hCB2R % displacement at 10 µM” value in data set [3] turned out to be 32 ± 6%. The inhibition constant (Ki) in data set [3] (read-out: hCB2R Ki, CHO membranes stably expressing human CB2R, means of three experiments) is above 10000 nM.

Regarding `Cc1c(C(=O)NN2CCOCC2)nn(-c2ccc(Cl)cc2Cl)c1-c1ccc(I)cc1` [AM281, reference compound], in data set [4] (antagonist mode, normalized to reference antagonist AM281), the “Variation of Emax” value was -100%. In addition, the “Antagonist activity (cAMP assay) pEC50 or pIC50 ± SEM” value in data set [4] (antagonist mode, n.a. is no activity) is reported as 7.0 ± 0.04.

Take `CCC(CC)(NC(=O)c1nn(-c2ccc(Cl)cc2Cl)c(-c2ccc(Cl)cc2)c1C)C(=O)NCCOCCOCCNc1ccc([N+](=O)[O-])c2nonc12` [Compound 30, 5-(4-Chlorophenyl)-1-(2,4-dichlorophenyl)-4-methyl-N-(3-((2-(2-(2-((7-nitrobenzo[c][1,2,5]oxadiazol-4-yl)amino)ethoxy)ethoxy)ethyl)carbamoyl)pentan-3-yl)-1H-pyrazole-3-carboxamide]: in data set [1], the Emax was -41%, the IC50 was determined as 60.3 nM and the “Functional activity at CB1R (in words)” value was “Inverse agonist”. For the same compound, in data set [5], the “Abs (absorbance maximum)” value is reported as 475 nm, the “Em (emission maximum)” value came out at 570 nm and the “QY (quantum yield)” value turned out to be 0.80%. Besides, the inhibitory constant (Ki) in data set [2] (setting [9]) amounted to 428 nM. In addition, in data set [2] (radioligand binding Ki ratio), the “Ki(CB2R)/Ki(CB1R)” value is given as above 23. In data set [3], the “hCB2R % displacement at 10 µM” value is 49 ± 3%. The same compound came in with a Ki in data set [3] (setting [8]) above 10000 nM.

Regarding `CCC(CC)(NC(=O)c1cc(-c2cc(C(F)(F)F)ccc2C(F)(F)F)n(C[C@H]2CCCO2)c1C)C(=O)NCCOCCOCCNc1ccc([N+](=O)[O-])c2n[nH]nc12` [Compound 52, (R)-5-(2,5-Bis(trifluoromethyl)phenyl)-2-methyl-N-(3-((2-(2-(2-((7-nitro-2H-benzo[d][1,2,3]triazol-4-yl)amino)ethoxy)ethoxy)ethyl)carbamoyl)pentan-3-yl)-1-((tetrahydrofuran-2-yl)methyl)-1H-pyrrole-3-carboxamide], in data set [5], the “Abs (absorbance maximum)” value is listed as 425 nm, the “Em (emission maximum)” value amounted to 495 nm and the “QY (quantum yield)” value was determined as 0.10%. Further, in data set [2] (setting [6]), the Ki is 225 nM. The Ki in data set [3] (setting [7]) was found to be 1620 nM.

In the case of `CCC(CC)(NC(=O)c1cnc(OCC2CC2)c(-c2ccc(F)cc2)c1)C(=O)NCCOCCOCCNc1ccc([N+](=O)[O-])c2nonc12` [Compound 40, 6-(Cyclopropylmethoxy)-5-(4-fluorophenyl)-N-(3-((2-(2-(2-((7-nitrobenzo[c][1,2,5]oxadiazol-4-yl)amino)ethoxy)ethoxy)ethyl)carbamoyl)pentan-3-yl)nicotinamide], in data set [5], the “Abs (absorbance maximum)” value is 465 nm, the “Em (emission maximum)” value came to 550 nm and the “QY (quantum yield)” value is 1.30%. Moreover, in data set [2], the “hCB1R % displacement at 10 µM” value was 34 ± 1%. This compound also registered a Ki in data set [2] (setting [9]) above 10000 nM. In data set [3] (setting [8]), this compound registered a Ki of 481 nM.

Turning to `CCC(CC)(NC(=O)c1cc(-c2cc(C(F)(F)F)ccc2C(F)(F)F)n(C[C@H]2CCCO2)c1C)C(=O)NCCOCCOCCNc1ccc([N+](=O)[O-])c2nonc12` [Compound 28, (R)-5-(2,5-Bis(trifluoromethyl)phenyl)-2-methyl-N-(3-((2-(2-(2-((7-nitrobenzo[c][1,2,5]oxadiazol-4-yl)amino)ethoxy)ethoxy)ethyl)carbamoyl)pentan-3-yl)-1-((tetrahydrofuran-2-yl)methyl)-1H-pyrrole-3-carboxamide], in data set [1], the Emax is -62%, the IC50 was 16.6 nM and the “Functional activity at CB1R (in words)” value is listed as “inverse agonists”. Besides, in data set [5], the “Abs (absorbance maximum)” value is listed as 475 nm, the “Em (emission maximum)” value was 550 nm and the “QY (quantum yield)” value was 1.3%. This compound displayed a Ki in data set [2] (setting [9]) of 97 nM. The “Ki(CB2R)/Ki(CB1R)” value in data set [2] (radioligand binding Ki ratio) is listed as above 103. Also, the “hCB2R % displacement at 10 µM” value in data set [3] stood at 41 ± 2%. The Ki in data set [3] (setting [7]) was above 10000 nM. In data set [4], the midpoint of inhibition, the IC50, lay at 398 nM and the Emax was -97%.

One may read the Emax as the greatest response seen or fitted, relative to the assay's reference. Usually IC50 stands for the midpoint of a concentration-inhibition curve. Usually Ki stands for the dissociation constant of the complex between target and ligand, obtained from inhibition or displacement. A word on the EC50: it is the concentration that produces a half-maximal response. Low readings indicate a more potent agent, high ones a less potent agent.
